Source: patent US6949558B2, “Enhancement of taxane-based chemotherapy by a CDK1 antagonist” (Yale University, priority 2001, dated 2005)

How the values were obtained:
[1] = system: survivin expression in HT2-19 cells; experiment: Survivin expression by Western blotting in HT2-19 cells; format: cell-based; settings: taxol 0.2 μM
Source text: (§1) Cell Cultures and Antibodies: Breast carcinoma MCF-7, prostate carcinoma PC3, and cervical carcinoma HeLa cells (American Type Culture Collection, Manassas, Va.) were maintained in culture according to the supplier's recommendations. HT2-19 cells with conditional inactivation of the p34^cdc2 gene were described previously (J. E. Itzhaki et al. (1997) Nat. Gen. 15: 258-265). In this cell line, removal of IPTG from the culture medium results in inactivation of the second p34^cdc2 allele (J. E. Itzhaki et al. (1997) Nat. Gen. 15: 258-265). For spindle checkpoint activation, the various cell types were treated with taxol (0.2-2 μM, Sigma Chemical Co., St. Louis, Mo.), vincristine (100 nM, Sigma) or cisplatin (3 μM, Sigma) for 16 h at 37° C. For genetic ablation of p34^cdc2, HT2-19 cells were washed and cultivated in the absence of IPTG for 48-72 h before analysis of apoptosis (see below) or expression of survivin or p34^cdc2, by Western blotting. In some experiments, taxol (0.2 μM) was added to HT2-19 cells simultaneously with the withdrawal of IPTG, and cells were processed as described above. […] For viral transduction, HT2-19 cells in the absence of IPTG were infected with pAd-GFP or pAd-Survivin at multiplicity of infection (m.o.i.) of 50, and analyzed after a 48-72 h culture for changes in cell cycle progression and apoptosis. […]

HT2-19 cells = experiment: Apoptosis and cell cycle in HT2-19 cells with conditional inactivation of p34^cdc2; format: cell-based; settings: taxol 0.2 μM
Source text: as §1

[2] = system: p34^cdc2 kinase activity (MPM-2 epitope) in MCF-7 cells; experiment: MPM-2 mitotic phosphoepitope expression (p34^cdc2 kinase activity) in MCF-7 cells; format: cell-based, human
Protocol: MPM-2 Mitotic Phosphoepitope Expression: For detection of mitotic phosphoproteins (D. D. Vandre et al. (1989) J. Cell Sci. 94: 245-58), MCF-7 cells (1-2×10^5 cells/60 mm dish) were treated with taxol (2 μM), adriamycin (100 nM), 50 or 300 J/m^2 UVB irradiation and cultured for 0, 8, 16, 24 or 36 h at 37° C. Cells were fixed in 70% ethanol, labeled with MPM-2 antibody (6 μg/ml) followed by addition of goat anti-mouse FITC (Boehringer Mannheim) for 1 h at 22° C. in the presence of 5 μg/ml propidium iodide (PI) containing 50 μg/ml RNase A. Samples were analyzed on a FACScan (Becton Dickinson, Mountain View, Calif.), using CellQuest software.
MPM-2 Mitotic Phosphoepitope Expression: For detection of mitotic phosphoproteins (D. D. Vandre et al. (1989) J. Cell Sci. 94: 245-258), MCF-7 cells (1-2×10^5 cells/60 mm dish) were treated with taxol (0.2 μM), or vincristine (100 nM) for increasing time intervals (8-36 h) at 37° C. Cells were fixed in 70% ethanol, labeled with MPM-2 antibody (6 μg/ml; Upstate Biotechnology, Lake Placid, N.Y.) followed by addition of goat anti-mouse FITC (Boehringer Mannheim) for 1 h at 22° C. in the presence of 5 μg/ml propidium iodide containing 50 μg/ml RNAse A. Samples were analyzed on a FACScan (Becton Dickinson, Mountain View, Calif.), using CellQuest software. Data are expressed as %MPM-2 positive cells in the entire population.

CC(=O)O[C@H]1C(=O)[C@@]2(C)[C@H]([C@H](OC(=O)c3ccccc3)[C@]3(O)C[C@H](OC(=O)[C@H](O)[C@@H](NC(=O)c4ccccc4)c4ccccc4)C(C)=C1C3(C)C)[C@]1(OC(C)=O)CO[C@@H]1C[C@@H]2O [taxol, Paclitaxel]
survivin expression ([1]; HT2-19 cells in the absence of IPTG (p34^cdc2 −/−)): only a minimally detectable increase in survivin expression | survivin levels ([1]; IPTG+ HT2-19 cells (p34^cdc2 +/−)): increased survivin levels | cell cycle arrest (HT2-19 cells; HT2-19, p34^cdc2 +/− (IPTG present)): homogeneous mitotic arrest | apoptosis vs untreated IPTG− cultures (HT2-19 cells; IPTG− HT2-19 cells (p34^cdc2 −/−)): considerably increased apoptosis | MPM-2 expression ([2]; taxol 2 μM (Example 7)): elevated MPM-2 expression | p34^cdc2 kinase activity (MPM-2 phosphoepitope expression) ([2]; taxol 0.2-2 μM (Example 8)): elevated p34^cdc2 kinase activity
